Results taken from patent US7579315B2, “Casein peptides for alleviating or preventing aging of skin” (Pepsyn Ltd., priority 2000, dated 2009).

Test system: Human keratinocytes (HatKat)
Experiment: Growth of keratinocytes, cell count in Coulter counter after three days
Type: cell-based
Settings: 10 ng/ml EGF versus medium with 0.5% FCS
Experimental: Human keratinocytes (HatKat) were grown in keratinocyte growth medium (TCS Cellworks Ltd.) until 20% confluence. Then, in the same medium, the keratinocytes were grown for three days with 0.5% foetal calf serum (FCS), at which point the cells were counted in a Coulter® counter. The cell numbers obtained are set out in Table 3 below.

epidermal growth factor (NSDSECPLSHDGYCLHDGVCMYIEALDKYACNCVVGYIGERCQYRDLKWWELR; UniProt P01133 971-1023, looked up) [EGF, epidermal growth factor, comparison growth factor at 10 ng/ml]
increase in the growth of keratinocytes (in words): relatively modest increase
